Tests used:
[1] = test system: 3D7 strain of Plasmodium falciparum; test: In vitro activity against 3D7 strain of Plasmodium falciparum ([3H]-hypoxanthine incorporation assay); assay type: cell-based; settings: Erythrocyte, 48 h, P. falciparum 3D7 in human erythrocytes, 2 d, growth inhibition, read-out: IC50: 1 Org. Growth P. falciparum 3D7, 2 d (LPS_00570)
Protocol: In Vitro Activity Against Plasmodium falciparum a) Against 3D7 Strain of Plasmodium falciparum Inhibition of 3D7 strain parasites was assessed using the [^3H]-hypoxanthine incorporation assay (Desjardins, et al. Antimicrob. Agents Chemother. 1979, 16, 710-718). Briefly, parasites were cultured in human erythrocytes (from the Spanish Red Cross blood bank) using RPMI-1640 culture media (Gibco) supplemented with 0.5% Albumax II (Invitrogen), 2% D-sucrose (Sigma-Aldrich), 0.3% glutamine (Sigma-Aldrich), and 5 mM hypoxanthine (Sigma-Aldrich). Cultures were maintained at 37° C. at an atmosphere of 5% O2, 5% CO2, and […]. To assess inhibition, asynchronous parasite cultures with 0.5% parasitemia and 2% hematocrit were exposed to 3-fold serial dilutions of test compounds for 24 hours in 96 well plate cultures (Costar #3894). After 24 hours, [^3H]-hypoxanthine was added, plates were incubated for an additional 24 hours, and parasites were harvested on glass fiber filters (Wallac #1450-421) using a cell harvester 96 (TOMTEC, Perkin Elmer). Filters were dried on scintillator sheets (MeltiLex A, PerkinElmer #1450-441) to determine incorporation of [^3H]-hypoxanthine. Radioactivity was measured using a microbeta counter (Perkin Elmer). Data are normalized using the incorporation of the positive control (infected erythrocytes without drug). IC50 values were determined using Excel and Grafit 5 software. Values were determined from at least three independent experiments, and standard deviations were calculated.

[2] = test system: W2 strain of Plasmodium falciparum; test: In vitro activity against W2 strain of Plasmodium falciparum (YOYO-1 flow cytometry); assay type: cell-based; settings: Erythrocyte, 48 h, P. falciparum W2 in human erythrocytes, 2 d, growth inhibition, read-out: IC50: 1 Org. Growth P. falciparum W2, 2 d (LPS_00451)
Protocol: In Vitro Activity Against Plasmodium falciparum
b) Against W2 Strain of Plasmodium falciparum
W2 strain P. falciparum parasites were cultured in human erythrocytes and RPMI-1640 culture media with either 10% human serum or 0.5% Albumax serum substitute under 3% O2, 5% CO2, and 92% N2. Parasites synchronized to ring stage by treatments with 5% D-sorbitol were cultured with serial dilutions of benzoxaboroles from 5 to 10 mM stocks in 96 well microplate cultures including 200 μL of media/well, 2% hematocrit, and 1% parasitemia. At the completion of 48 h incubations, when untreated cultures contained new rings, parasites were fixed with 2% formaldehyde for 48 h, and 5 μL aliquots were transferred to another 96 well plate containing 150 μL/well of staining solution (100 mM NH4Cl, 0.1% Triton X-100, and 1 nM YOYO-1 in PBS). Parasites per erythrocyte were then determined by flow cytometry from plots of forward scatter against fluorescence (excitation 488 nm, emission 520 nm) using a FacSort flow cytometer (Beckton Dickinson) equipped with an AMS Loader (Cytek Development). All values were normalized to percent control activity, and IC50s were calculated using the Prism 3.0 program (GRAPHPAD Software). Goodness of fit was assessed by R^2 values, and meaningful dose-response curves yielded R^2 values >0.95.

| Compound | IC50 [1] | IC50 [2] |
| --- | --- | --- |
| Cc1c(Oc2cnc(C(=O)N3CCC(C)(O)C3)cn2)ccc2c1B(O)OC2 (racemic) [Example 40, (3-hydroxy-3-methylpyrrolidin-1-yl) (5-((1-hydroxy-7-methyl-1,3-dihydrobenzo[c][1,2]oxaborol-6-yl)oxy)pyrazin-2-yl)methanone] | 314 nM | 139 nM |
| Cc1c(Oc2cnc(C(=O)N[C@@H]3CCC[C@@H]3O)cn2)ccc2c1B(O)OC2 (relative stereo) [Example 49, 5-((1-hydroxy-7-methyl-1,3-dihydrobenzo[c][1,2]oxaborol-6-yl)oxy)-N-(cis-2-hydroxycyclopentyl)pyrazine-2-carboxamide] | 181 nM | 292 nM |
| Cc1c(Oc2cnc(C(=O)NCCO)cn2)ccc2c1B(O)OC2 [Example 1, 5-((1-hydroxy-7-methyl-1,3-dihydrobenzo[c][1,2]oxaborol-6-yl)oxy)-N-(2-hydroxyethyl)pyrazine-2-carboxamide] | 1080 nM | 372 nM |
| COCCNC(=O)c1cnc(Oc2ccc3c(c2C)B(O)OC3)cn1 [Example 2, 5-(1-hydroxy-7-methyl-1,3-dihydrobenzo[c][1,2]oxaborol-6-yloxy)-N-(2-methoxyethyl)pyrazine-2-carboxamide] | 644 nM | 788 nM |
| Cc1c(Oc2cnc(C(=O)NC(C)(C)CO)cn2)ccc2c1B(O)OC2 [Example 3, N-(1-hydroxy-2-methylpropan-2-yl)-5-(1-hydroxy-7-methyl-1,3-dihydrobenzo[c][1,2]oxaborol-6-yloxy)pyrazine-2-carboxamide] | 425 nM | 290 nM |
| Cc1c(Oc2cnc(C(=O)NCC(C)(C)O)cn2)ccc2c1B(O)OC2 [Example 4, N-(2-hydroxy-2-methylpropyl)-5-(1-hydroxy-7-methyl-1,3-dihydrobenzo[c][1,2]oxaborol-6-yloxy)pyrazine-2-carboxamide] | 554 nM | 334 nM |
| Cc1c(Oc2cnc(C(=O)NC(C)CO)cn2)ccc2c1B(O)OC2 (stereo not shown) [Example 5, 5-(1-hydroxy-7-methyl-1,3-dihydrobenzo[c][1,2]oxaborol-6-yloxy)-N-(1-hydroxypropan-2-yl)pyrazine-2-carboxamide] | 317 nM | 92.3 nM |
| Cc1c(Oc2cnc(C(=O)N(CCO)CCO)cn2)ccc2c1B(O)OC2 [Example 6, 5-(1-hydroxy-7-methyl-1,3-dihydrobenzo[c][1,2]oxaborol-6-yloxy)-N,N-bis(2-hydroxyethyl)pyrazine-2-carboxamide] | 184 nM | 328 nM |
| Cc1c(Oc2cnc(C(=O)NC(CO)C(C)C)cn2)ccc2c1B(O)OC2 (stereo not shown) [Example 7, N-(1-hydroxy-3-methylbutan-2-yl)-5-(1-hydroxy-7-methyl-1,3-dihydrobenzo[c][1,2]oxaborol-6-yloxy)pyrazine-2-carboxamide] | 96.5 nM | 115 nM |
| Cc1c(Oc2cnc(C(=O)NC(CO)CC(C)C)cn2)ccc2c1B(O)OC2 (stereo not shown) [Example 8, N-(1-hydroxy-4-methylpentan-2-yl)-5-((1-hydroxy-7-methyl-1,3-dihydrobenzo[c][1,2]oxaborol-6-yl)oxy)pyrazine-2-carboxamide] | 937 nM | 930 nM |
| Cc1c(Oc2cnc(C(=O)NCC(C)O)cn2)ccc2c1B(O)OC2 (stereo not shown) [Example 9, 5-(1-hydroxy-7-methyl-1,3-dihydrobenzo[c][1,2]oxaborol-6-yloxy)-N-(2-hydroxypropyl)pyrazine-2-carboxamide] | 1100 nM | 1280 nM |
| Cc1c(Oc2cnc(C(=O)N(C)CCO)cn2)ccc2c1B(O)OC2 [Example 10, 5-(1-hydroxy-7-methyl-1,3-dihydrobenzo[c][1,2]oxaborol-6-yloxy)-N-(2-hydroxyethyl)-N-methylpyrazine-2-carboxamide] | 437 nM | 262 nM |
| Cc1c(Oc2cnc(C(=O)N[C@H](C)CO)cn2)ccc2c1B(O)OC2 [Example 11] | 848 nM | 944 nM |
| Cc1c(Oc2cnc(C(=O)N[C@@H](C)CO)cn2)ccc2c1B(O)OC2 [Example 12, (S)-5-(1-hydroxy-7-methyl-1,3-dihydrobenzo[c][1,2]oxaborol-6-yloxy)-N-(1-hydroxypropan-2-yl)pyrazine-2-carboxamide] | 808 nM | 844 nM |
| CCC[C@@H](CO)NC(=O)c1cnc(Oc2ccc3c(c2C)B(O)OC3)cn1 [Example 13, (S)-5-(1-hydroxy-7-methyl-1,3-dihydrobenzo[c][1,2]oxaborol-6-yloxy)-N-(1-hydroxypentan-2-yl)pyrazine-2-carboxamide] | 715 nM | 297 nM |
| CCC[C@H](CO)NC(=O)c1cnc(Oc2ccc3c(c2C)B(O)OC3)cn1 [Example 14, (R)-5-(1-hydroxy-7-methyl-1,3-dihydrobenzo[c][1,2]oxaborol-6-yloxy)-N-(1-hydroxypentan-2-yl)pyrazine-2-carboxamide] | 201 nM | 161 nM |
| Cc1c(Oc2cnc(C(=O)NC(CO)Cc3ccccc3)cn2)ccc2c1B(O)OC2 (stereo not shown) [Example 15, N-(1-hydroxy-3-phenylpropan-2-yl)-5-(1-hydroxy-7-methyl-1,3-dihydrobenzo[c][1,2]oxaborol-6-yloxy)pyrazine-2-carboxamide] | 407 nM | 297 nM |
| Cc1c(Oc2cnc(C(=O)NC(CO)c3ccccc3)cn2)ccc2c1B(O)OC2 (stereo not shown) [Example 16, N-(2-hydroxy-1-phenylethyl)-5-(1-hydroxy-7-methyl-1,3-dihydrobenzo[c][1,2]oxaborol-6-yloxy)pyrazine-2-carboxamide] | 380 nM | 223 nM |
| Cc1c(Oc2cnc(C(=O)NC3(CO)CC3)cn2)ccc2c1B(O)OC2 [Example 17, 5-((1-hydroxy-7-methyl-1,3-dihydrobenzo[c][1,2]oxaborol-6-yl)oxy)-N-(1-(hydroxymethyl)cyclopropyl)pyrazine-2-carboxamide] | 1500 nM | 2010 nM |
| CCC(CO)NC(=O)c1cnc(Oc2ccc3c(c2C)B(O)OC3)cn1 (stereo not shown) [Example 18, 5-(1-hydroxy-7-methyl-1,3-dihydrobenzo[c][1,2]oxaborol-6-yloxy)-N-(1-hydroxybutan-2-yl)pyrazine-2-carboxamide] | 725 nM | 622 nM |
| CC[C@H](CO)NC(=O)c1cnc(Oc2ccc3c(c2C)B(O)OC3)cn1 [Example 19, (R)-5-(1-hydroxy-7-methyl-1,3-dihydrobenzo[c][1,2]oxaborol-6-yloxy)-N-(1-hydroxybutan-2-yl)pyrazine-2-carboxamide] | 403 nM | 136 nM |
| C=CC(CO)NC(=O)c1cnc(Oc2ccc3c(c2C)B(O)OC3)cn1 (stereo not shown) [Example 20, 5-(1-hydroxy-7-methyl-1,3-dihydrobenzo[c][1,2]oxaborol-6-yloxy)-N-(1-hydroxybut-3-en-2-yl)pyrazine-2-carboxamide] | 786 nM | 535 nM |
| CC[C@@H](CO)NC(=O)c1cnc(Oc2ccc3c(c2C)B(O)OC3)cn1 [Example 21, (S)-5-(1-hydroxy-7-methyl-1,3-dihydrobenzo[c][1,2]oxaborol-6-yloxy)-N-(1-hydroxybutan-2-yl)pyrazine-2-carboxamide] | 801 nM | 704 nM |
| Cc1c(Oc2cnc(C(=O)NC(CO)C3CC3)cn2)ccc2c1B(O)OC2 (stereo not shown) [Example 22, N-(1-cyclopropyl-2-hydroxyethyl)-5-(1-hydroxy-7-methyl-1,3-dihydrobenzo[c][1,2]oxaborol-6-yloxy)pyrazine-2-carboxamide] | 1150 nM | 458 nM |
| Cc1c(Oc2cnc(C(=O)N[C@H](CO)C(C)C)cn2)ccc2c1B(O)OC2 [Example 23, (S)—N-(1-hydroxy-3-methylbutan-2-yl)-5-(1-hydroxy-7-methyl-1,3-dihydrobenzo[c][1,2]oxaborol-6-yloxy)pyrazine-2-carboxamide] | 1990 nM | 774 nM |
| Cc1c(Oc2cnc(C(=O)N[C@@H](CO)C3CC3)cn2)ccc2c1B(O)OC2 [Example 24, (R)—N-(1-cyclopropyl-2-hydroethyl)-5-(1-hydroxy-7-methyl-1,3-dihydrobenzo[c][1,2]oxaborol-6-yloxy)pyrazine-2-carboxamide] | 587 nM | 492 nM |
